Here are results for 3 compounds from patent publication US11786495B2 (priority 2021, dated 2023).

Counter-ions that a name gives are not always drawn.

The conditions of data set [1]: model of spinal stenosis; cited from earlier work.
The next data set deals with beta amyloid protein. The following applies: varying concentrations of sodium citrate; thioflavin T positive aggregates; cited from earlier work.
Data set [2] can be described thus: TEC vs. Lipinski criteria for CNS drug like properties. The settings on record: four criteria: MW, LogP, HBD, HBA.
The conditions of data set [3]: 70 kg man, estimated, extrapolated from animal models; cited from earlier work.

Regarding `O=C(O)CC(O)(CC(=O)O)C(=O)O` [Citrate], the Bone calcium entry in data set [1] was “decrease bone calcium”.
`O=C([O-])CC(O)(CC(=O)[O-])C(=O)[O-].[Na+].[Na+].[Na+]` [sodium citrate]: the “Dissolution of calcium-produced beta amyloid aggregates” value in the data set with beta amyloid protein is reported as “aggregates dissolve in response to citrate concentration”.
On to `CCOC(=O)CC(O)(CC(=O)OCC)C(=O)OCC` [TEC, Triethyl citrate], for which the “Lipinski criteria met for a CNS drug” value in data set [2] is given as “Three out of four”. The LD50 in data set [3] is roughly 500 cc.
